IC50 data for 25 compounds are collected here from patent US11242334B2, “Heterocyclic compounds as kinase inhibitors, compositions comprising the heterocyclic compound, and methods of use thereof” (JS INNOPHARM (SHANGHAI) LTD, priority 2017, dated 2022).

The subject of experiment [1] is Colo205 cell line. As to the kind of experiment: Colo205 cell proliferation assay (MTT assay, WST-8 readout). The settings on record: Homo sapiens; IC50 values of growth inhibition in Colo 205 cells; 72 hours. It counts as cell-based. In short, it runs like this: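 Colo205 cells were seeded at 5,000 cells/well in RPMI-1640 with 10% FBS and attached for 24 h at 37° C. They were then exposed for 72 h to compound at final 50 μM to 0.005 μM (0.5% DMSO). Viability was read as WST-8 absorbance at 450 nm after 2 h, and IC50 of growth inhibition was determined.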
(Formazan colour is commonly taken as a measure of viable cells.)

The target of experiment [2] is T1, human ERK2 (Homo sapiens, UniProt P28482).
T1 construct: recombinantly expressed as GST-tagged full-length protein purified from E. coli; GST; purchased Invitrogen PV3311; host or cells: E. coli
T1 sequence (P28482 whole entry): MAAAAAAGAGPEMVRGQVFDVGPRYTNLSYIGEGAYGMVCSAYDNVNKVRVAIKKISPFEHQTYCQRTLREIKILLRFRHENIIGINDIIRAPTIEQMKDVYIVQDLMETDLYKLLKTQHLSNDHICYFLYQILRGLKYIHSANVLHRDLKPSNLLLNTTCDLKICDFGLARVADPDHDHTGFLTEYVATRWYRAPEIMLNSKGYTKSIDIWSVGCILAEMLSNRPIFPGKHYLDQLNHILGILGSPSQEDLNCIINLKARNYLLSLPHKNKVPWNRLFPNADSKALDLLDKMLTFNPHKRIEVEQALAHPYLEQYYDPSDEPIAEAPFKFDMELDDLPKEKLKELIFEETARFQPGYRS
As to the kind of experiment: LanthaScreen TR-FRET enzymatic assay, ERK2. The settings on record: IC50 values of ERK2 biochemical activity; 5 μM ATP, 400 nM ATF2-GFP substrate. In short, it runs like this:
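GST-tagged full-length ERK2 from E. coli, activated with MAP2K1, was used at 20 ng/ml with 400 nM GFP-ATF2(19-96) and 5 μM ATP (near Km). Compound was pre-incubated 15 min, and the reaction ran 1 h at room temperature. pThr71 was detected by Tb-antibody TR-FRET ratio, with IC50 from sigmoid fitting against 1% DMSO.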
(In general: TR-FRET usually uses a lanthanide donor and a delayed reading to cut background.)

pIC50: −log10 of the molar value.

A word on the pIC50: it is the negative decadic logarithm of the IC50, by convention in mol/L. Low values mean a large IC50, high ones a small IC50. Regarding `Cn1cc(-c2n[nH]c3ncc(-c4ccn([C@H](CO)c5cc(F)cc(Br)c5)c(=O)c4)cc23)cn1` [Example 106, (S)-1-(1-(3-bromo-5-fluorophenyl)-2-hydroxyethyl)-4-(3-(1-methyl-1H-pyrazol-4-yl)-1H-pyrazolo[3,4-b]pyridin-5-yl)pyridin-2(1H)-one], the pIC50 in experiment [1] is 6.00 to 6.30; in experiment [2], more than 8.00.
With `CNCC(c1ccc(F)c(Cl)c1)n1ccc(-c2ccc3[nH]nc(-c4ccnc(C)c4)c3c2)cc1=O` (centres unmarked) [Example 107, 1-(1-(3-chloro-4-fluorophenyl)-2-(methylamino)ethyl)-4-(3-(2-methylpyridin-4-yl)-1H-indazol-5-yl)pyridin-2(1H)-one], the pIC50 in experiment [1] is not below 6.30; in experiment [2], more than 8.00.
Regarding `Cn1cc(-c2n[nH]c3ncc(-c4ccn([C@H](CO)c5ccc(F)c(Cl)c5)c(=O)c4)cc23)cn1` [Example 108, (S)-1-(1-(3-chloro-4-fluorophenyl)-2-hydroxyethyl)-4-(3-(1-methyl-1H-pyrazol-4-yl)-1H-pyrazolo[3,4-b]pyridin-5-yl)pyridin-2(1H)-one], the negative logarithm of the IC50 (pIC50) is 5.30 to 6.00 in experiment [1] and more than 8.00 in experiment [2].
In the case of `O=c1cc(-c2ccc3[nH]nc(-c4cnn(CCO)c4)c3c2)ccn1[C@H](CO)c1ccc(F)c(Cl)c1` [Example 109, (S)-1-(1-(3-chloro-4-fluorophenyl)-2-hydroxyethyl)-4-(3-(1-(2-hydroxyethyl)-1H-pyrazol-4-yl)-1H-indazol-5-yl)pyridin-2(1H)-one], the pIC50 in experiment [1] is less than 5.30; in experiment [2] it was more than 8.00.
Taken in the same sequence, the figures for `CCOc1ccc(-c2n[nH]c3ncc(-c4ccn([C@H](CO)c5cc(F)cc(Br)c5)c(=O)c4)cc23)cn1` [Example 110, (S)-1-(1-(3-bromo-5-fluorophenyl)-2-hydroxyethyl)-4-(3-(6-ethoxypyridin-3-yl)-1H-pyrazolo[3,4-b]pyridin-5-yl)pyridin-2(1H)-one] were 6.00 to 6.30 and more than 8.00.
Taken in the same sequence, the figures for `O=c1cc(-c2ccc3[nH]nc(-c4ccc(F)cc4)c3c2)ccn1[C@H](CO)c1cc(F)cc(Br)c1` [Example 111, (S)-1-(1-(3-bromo-5-fluorophenyl)-2-hydroxyethyl)-4-(3-(4-fluorophenyl)-1H-indazol-5-yl)pyridin-2(1H)-one] were not below 6.30 and more than 8.00.
Turning to `Cc1cc(-c2n[nH]c3ccc(-c4ccn(Cc5ccnc(C(F)(F)F)c5)c(=O)c4)nc23)ccn1` [Example 112, 4-(3-(2-methylpyridin-4-yl)-1H-pyrazolo[4,3-b]pyridin-5-yl)-1-((2-(trifluoromethyl)pyridin-4-yl)methyl)pyridin-2(1H)-one], the negative-log IC50 (pIC50) in experiment [1] is 5.30 to 6.00; in experiment [2], more than 8.00.
Taken in the same sequence, the figures for `Cn1cc2cc(-c3n[nH]c4ccc(-c5ccn([C@H](CO)c6cc(F)cc(Br)c6)c(=O)c5)cc34)ccc2n1` [Example 113, (S)-1-(1-(3-bromo-5-fluorophenyl)-2-hydroxyethyl)-4-(2′-methyl-1H,2′H-[3,5′-biindazol]-5-yl)pyridin-2(1H)-one] were not below 6.30 and more than 8.00.
With `O=c1cc(-c2ccc3[nH]nc(-c4ccc5ncsc5c4)c3c2)ccn1[C@H](CO)c1cc(F)cc(Br)c1` [Example 114, (S)-4-(3-(benzo[d]thiazol-6-yl)-1H-indazol-5-yl)-1-(1-(3-bromo-5-fluorophenyl)-2-hydroxyethyl)pyridin-2(1H)-one], the pIC50 in experiment [1] is not below 6.30; in experiment [2], more than 8.00.
In the case of `COc1cc(-c2n[nH]c3ccc(-c4ccn([C@H](CO)c5cc(F)cc(Br)c5)c(=O)c4)cc23)ccn1` [Example 115, (S)-1-(1-(3-bromo-5-fluorophenyl)-2-hydroxyethyl)-4-(3-(2-methoxypyridin-4-yl)-1H-indazol-5-yl)pyridin-2(1H)-one], the pIC50 in experiment [1] is not below 6.30; in experiment [2] it was more than 8.00.
Take `COc1ccc(-c2n[nH]c3ccc(-c4ccn(Cc5ccnc(C(F)(F)F)c5)c(=O)c4)cc23)cn1` [Example 116, 4-(3-(6-methoxypyridin-3-yl)-1H-indazol-5-yl)-1-((2-(trifluoromethyl)pyridin-4-yl)methyl)pyridin-2(1H)-one]: the negative-log IC50 (pIC50) in experiment [1] was 5.30 to 6.00; in experiment [2], more than 8.00.
With `O=c1cc(-c2ccc3[nH]nc(-c4ccc(F)cc4)c3c2)ccn1Cc1ccnc(C(F)(F)F)c1` [Example 117, 4-(3-(4-fluorophenyl)-1H-indazol-5-yl)-1-((2-(trifluoromethyl)pyridin-4-yl)methyl)pyridin-2(1H)-one], the results for the pIC50 in experiment [1] and in experiment [2] were 5.30 to 6.00 and more than 8.00, respectively.
Taken in the same sequence, the figures for `O=c1cc(-c2ccc3[nH]nc(-c4ccc(OC5CC5)nc4)c3c2)ccn1[C@H](CO)c1cc(F)cc(Br)c1` [Example 118, (S)-1-(1-(3-bromo-5-fluorophenyl)-2-hydroxyethyl)-4-(3-(6-cyclopropoxypyridin-3-yl)-1H-indazol-5-yl)pyridin-2(1H)-one] were not below 6.30 and more than 8.00.
For `CCOc1cc(-c2n[nH]c3ccc(-c4ccn([C@H](CO)c5cc(F)cc(Br)c5)c(=O)c4)cc23)ccn1` [Example 119, (S)-1-(1-(3-bromo-5-fluorophenyl)-2-hydroxyethyl)-4-(3-(2-ethoxypyridin-4-yl)-1H-indazol-5-yl)pyridin-2(1H)-one], the pIC50 is not below 6.30 in experiment [1] and more than 8.00 in experiment [2].
As for `Cn1cc(-c2n[nH]c3ccc(-c4ccn([C@H](CO)c5cc(F)cc(Br)c5)c(=O)c4)cc23)ccc1=O` [Example 120, (S)-1-(1-(3-bromo-5-fluorophenyl)-2-hydroxyethyl)-4-(3-(1-methyl-6-oxo-1,6-dihydropyridin-3-yl)-1H-indazol-5-yl)pyridin-2(1H)-one], the pIC50 in experiment [1] is 5.30 to 6.00; in experiment [2], more than 8.00.
In the case of `Cn1ccc(-c2n[nH]c3ccc(-c4ccn([C@H](CO)c5cc(F)cc(Br)c5)c(=O)c4)cc23)cc1=O` [Example 121, (S)-1-(1-(3-bromo-5-fluorophenyl)-2-hydroxyethyl)-4-(3-(1-methyl-2-oxo-1,2-dihydropyridin-4-yl)-1H-indazol-5-yl)pyridin-2(1H)-one], the figures for the pIC50 in experiment [1] and in experiment [2] were 5.30 to 6.00 and more than 8.00, respectively.
With `COc1ccc(-c2n[nH]c3ccc(-c4ccn([C@H](CO)c5cc(F)cc(Br)c5)c(=O)c4)nc23)cn1` [Example 122, (S)-1-(1-(3-bromo-5-fluorophenyl)-2-hydroxyethyl)-4-(3-(6-methoxypyridin-3-yl)-1H-pyrazolo[4,3-b]pyridin-5-yl)pyridin-2(1H)-one], the pIC50 was 5.30 to 6.00 in experiment [1] and more than 8.00 in experiment [2].
Take `O=c1cc(-c2ccc3[nH]nc(-c4ccc(F)cn4)c3c2)ccn1Cc1ccnc(C(F)(F)F)c1` [Example 123, 4-(3-(5-fluoropyridin-2-yl)-1H-indazol-5-yl)-1-((2-(trifluoromethyl)pyridin-4-yl)methyl)pyridin-2(1H)-one]: the pIC50 in experiment [1] was less than 5.30; in experiment [2] it was 7.30 to 8.00.
As for `COc1ccc(-c2n[nH]c3cnc(-c4ccn([C@H](CO)c5cc(F)cc(Br)c5)c(=O)c4)cc23)cn1` [Example 124, (S)-1-(1-(3-bromo-5-fluorophenyl)-2-hydroxyethyl)-4-(3-(6-methoxypyridin-3-yl)-1H-pyrazolo[3,4-c]pyridin-5-yl)pyridin-2(1H)-one], the pIC50 in experiment [1] was 6.00 to 6.30; in experiment [2], more than 8.00.
As to `CC(c1cc(F)cc(Br)c1)n1ccc(-c2ccc3[nH]nc([C@H]4CC[C@H](O)CC4)c3c2)cc1=O` (some centres unmarked) [Example 140, 1-(1-(3-bromo-5-fluorophenyl)ethyl)-4-(3-((1r,4r)-4-hydroxycyclohexyl)-1H-indazol-5-yl)pyridin-2(1H)-one], the pIC50 in experiment [1] is 5.30 to 6.00; in experiment [2], more than 8.00.
On to `Cc1cc(-c2n[nH]c3ccc(-c4ccn(C(C)c5ccnc(C(F)(F)F)c5)c(=O)c4)cc23)ccn1` (centres unmarked) [Example 142, 4-(3-(2-methylpyridin-4-yl)-1H-indazol-5-yl)-1-(1-(2-(trifluoromethyl)pyridin-4-yl)ethyl)pyridin-2(1H)-one], for which the pIC50 is not below 6.30 in experiment [1] and more than 8.00 in experiment [2].
Taken in the same sequence, the figures for `Cc1cc(-c2n[nH]c3ccc(-c4cc(C)n(Cc5ccnc(C(F)(F)F)c5)c(=O)c4)cc23)ccn1` [Example 143, 6-methyl-4-(3-(2-methylpyridin-4-yl)-1H-indazol-5-yl)-1-((2-(trifluoromethyl)pyridin-4-yl)methyl)pyridin-2(1H)-one] were 6.00 to 6.30 and more than 8.00.
Taken in the same sequence, the figures for `Cc1cc(-c2n[nH]c3cnc(-c4ccn(Cc5ccnc(C(F)(F)F)c5)c(=O)c4)cc23)ccn1` [Example 144, 4-(3-(2-methylpyridin-4-yl)-1H-pyrazolo[3,4-c]pyridin-5-yl)-1-((2-(trifluoromethyl)pyridin-4-yl)methyl)pyridin-2(1H)-one] were 5.30 to 6.00 and more than 8.00.
With `O=c1cc(-c2ccc3[nH]nc(C4CCOCC4)c3c2)ccn1[C@H](CO)c1cc(F)cc(Br)c1` [Example 145, (S)-1-(1-(3-bromo-5-fluorophenyl)-2-hydroxyethyl)-4-(3-(tetrahydro-2H-pyran-4-yl)-1H-indazol-5-yl)pyridin-2(1H)-one], the values for the pIC50 in experiment [1] and in experiment [2] were 6.00 to 6.30 and more than 8.00, respectively.
As for `CC(c1cc(F)cc(Br)c1)n1ccc(-c2ccc3[nH]nc(C4CCOCC4)c3c2)cc1=O` (centres unmarked) [Example 146, 1-(1-(3-bromo-5-fluorophenyl)ethyl)-4-(3-(tetrahydro-2H-pyran-4-yl)-1H-indazol-5-yl)pyridin-2(1H)-one], the results for the pIC50 in experiment [1] and in experiment [2] were 5.30 to 6.00 and more than 8.00, respectively.
